From ChEMBL document CHEMBL6078713, “Synthesis and mechanistic studies of 4-aminoquinoline-Isatin molecular hybrids and Schiff's bases as promising antimicrobial agents” (Eur J Med Chem, 2025)
≈ marks a conversion by molar mass, not a printed value.

Tests used:
[1] = test system: Bacillus subtilis; test: Bactericidal activity against Bacillus subtilis MTCC 736 assessed as inhibition of bacterial growth incubated overnight; format: functional
[2] = test system: Escherichia coli; test: Ratio of MBC for antibacterial activity against Escherichia coli MTCC 443 to MIC for bactericidal activity against Escherichia coli MTCC 443; format: functional
[3] = test system: Salmonella typhi; test: Bactericidal activity against Salmonella typhi assessed as inhibition of bacterial growth incubated overnight; format: functional, Salmonella enterica subsp. enterica serovar Typhi; settings: Salmonella enterica
[4] = test system: Enterococcus faecalis; test: Antibacterial activity against Enterococcus faecalis MTCC 439 assessed as diameter of zone of inhibition at 500 ug/ml by agar disk diffusion method; format: functional; settings: read-out: DIZ
[5] = test system: Bacillus subtilis; test: Ratio of MBC for antibacterial activity against Bacillus subtilis MTCC 736 to MIC for bactericidal activity against Bacillus subtilis MTCC 736; format: functional
[6] = test system: Staphylococcus aureus; test: Antibacterial activity against Staphylococcus aureus MTCC 902 assessed as inhibition of bacterial growth incubated overnight by serial dilution based spectrophotometer; format: functional
[7] = test system: Staphylococcus aureus; test: Bactericidal activity against Staphylococcus aureus MTCC 902 assessed as inhibition of bacterial growth incubated overnight; format: functional
[8] = test system: Salmonella typhi; test: Antibacterial activity against Salmonella typhi assessed as inhibition of bacterial growth incubated overnight by serial dilution based spectrophotometer; format: functional, Salmonella enterica subsp. enterica serovar Typhi; settings: Salmonella enterica
[9] = test system: Salmonella typhi; test: Ratio of MBC for antibacterial activity against Salmonella typhi to MIC for bactericidal activity against Salmonella typhi; format: functional, Salmonella enterica subsp. enterica serovar Typhi
[10] = test system: Escherichia coli; test: Bactericidal activity against Escherichia coli MTCC 443 assessed as inhibition of bacterial growth incubated overnight; format: functional
[11] = test system: Pseudomonas aeruginosa; test: Bactericidal activity against Pseudomonas aeruginosa MTCC 2453 assessed as inhibition of bacterial growth incubated overnight; format: functional
[12] = test system: Escherichia coli; test: Antibacterial activity against Escherichia coli MTCC 443 assessed as inhibition of bacterial growth incubated overnight by serial dilution based spectrophotometer; format: functional
[13] = test system: Pseudomonas aeruginosa; test: Antibacterial activity against Pseudomonas aeruginosa MTCC 2453 assessed as inhibition of bacterial growth incubated overnight by serial dilution based spectrophotometer; format: functional
[14] = test system: Enterococcus faecalis; test: Antibacterial activity against Enterococcus faecalis MTCC 439 assessed as inhibition of bacterial growth incubated overnight by serial dilution based spectrophotometer; format: functional
[15] = test system: Bacillus subtilis; test: Antibacterial activity against Bacillus subtilis MTCC 736 assessed as inhibition of bacterial growth incubated overnight by serial dilution based spectrophotometer; format: functional
[16] = test system: Bacillus subtilis; test: Antibacterial activity against Bacillus subtilis MTCC 736 assessed as diameter of zone of inhibition at 500 ug/ml by agar disk diffusion method; format: functional; settings: read-out: DIZ
[17] = test system: Salmonella typhi; test: Antibacterial activity against Salmonella typhi assessed as diameter of zone of inhibition at 500 ug/ml by agar disk diffusion method; format: functional, Salmonella enterica subsp. enterica serovar Typhi; settings: Salmonella enterica, read-out: DIZ
[18] = test system: Staphylococcus aureus; test: Antibacterial activity against Staphylococcus aureus MTCC 902 assessed as diameter of zone of inhibition at 500 ug/ml by agar disk diffusion method; format: functional; settings: read-out: DIZ
[19] = test system: Escherichia coli; test: Antibacterial activity against Escherichia coli MTCC 443 assessed as diameter of zone of inhibition at 500 ug/ml by agar disk diffusion method; format: functional; settings: read-out: DIZ
[20] = test system: Pseudomonas aeruginosa; test: Antibacterial activity against Pseudomonas aeruginosa MTCC 2453 assessed as diameter of zone of inhibition at 500 ug/ml by agar disk diffusion method; format: functional; settings: read-out: DIZ
[21] = test system: Enterococcus faecalis; test: Bactericidal activity against Enterococcus faecalis MTCC 439 assessed as inhibition of bacterial growth incubated overnight; format: functional
[22] = test system: Enterococcus faecalis; test: Ratio of MBC for antibacterial activity against Enterococcus faecalis MTCC 439 to MIC for bactericidal activity against Enterococcus faecalis MTCC 439; format: functional
[23] = test system: Acinetobacter baumannii; test: Antibacterial activity against Acinetobacter baumannii assessed as inhibition of bacterial growth; format: functional
[24] = test system: Staphylococcus aureus; test: Ratio of MBC for antibacterial activity against Staphylococcus aureus MTCC 902 to MIC for bactericidal activity against Staphylococcus aureus MTCC 902; format: functional
[25] = test system: Pseudomonas aeruginosa; test: Ratio of MBC for antibacterial activity against Pseudomonas aeruginosa MTCC 2453 to MIC for bactericidal activity against Pseudomonas aeruginosa MTCC 2453; format: functional
[26] = test system: Escherichia coli; test: Antibacterial activity against Escherichia coli clinical isolate ECJH8 assessed as diameter of zone of inhibition by disk diffusion assay; format: functional
[27] = test system: Escherichia coli; test: Antibacterial activity against Escherichia coli clinical isolate ECJH6 assessed as diameter of zone of inhibition by disk diffusion assay; format: functional
[28] = test system: Escherichia coli; test: Antibacterial activity against Escherichia coli clinical isolate ECJH16 assessed as diameter of zone of inhibition by disk diffusion assay; format: functional
[29] = test system: Escherichia coli; test: Antibacterial activity against Escherichia coli clinical isolate ECJH17 assessed as diameter of zone of inhibition by disk diffusion assay; format: functional
[30] = test system: Escherichia coli; test: Antibacterial activity against Escherichia coli clinical isolate ECJH3 assessed as diameter of zone of inhibition by disk diffusion assay; format: functional
[31] = test system: Escherichia coli; test: Antibacterial activity against Escherichia coli clinical isolate ECJH15 assessed as diameter of zone of inhibition by disk diffusion assay; format: functional
[32] = test system: Escherichia coli; test: Antibacterial activity against Escherichia coli clinical isolate ECJH19 assessed as diameter of zone of inhibition by disk diffusion assay; format: functional
[33] = test system: Escherichia coli; test: Antibacterial activity against Escherichia coli clinical isolate ECJH25 assessed as diameter of zone of inhibition by disk diffusion assay; format: functional
[34] = test system: Escherichia coli; test: Antibacterial activity against Escherichia coli clinical isolate ECJH2 assessed as diameter of zone of inhibition by disk diffusion assay; format: functional
[35] = test system: Escherichia coli; test: Antibacterial activity against Escherichia coli clinical isolate ECJH5 assessed as diameter of zone of inhibition by disk diffusion assay; format: functional
[36] = test system: Escherichia coli; test: Antibacterial activity against Escherichia coli clinical isolate ECJH24 assessed as diameter of zone of inhibition by disk diffusion assay; format: functional
[37] = test system: Escherichia coli; test: Antibacterial activity against Escherichia coli clinical isolate ECJH9 assessed as diameter of zone of inhibition by disk diffusion assay; format: functional
[38] = test system: Escherichia coli; test: Antibacterial activity against Escherichia coli clinical isolate ECJH21 assessed as diameter of zone of inhibition by disk diffusion assay; format: functional
[39] = test system: Escherichia coli; test: Antibacterial activity against Escherichia coli clinical isolate ECJH18 assessed as diameter of zone of inhibition by disk diffusion assay; format: functional
[40] = test system: Escherichia coli; test: Antibacterial activity against Escherichia coli clinical isolate ECJH7 assessed as diameter of zone of inhibition by disk diffusion assay; format: functional
[41] = test system: Escherichia coli; test: Antibacterial activity against Escherichia coli clinical isolate ECJH23 assessed as diameter of zone of inhibition by disk diffusion assay; format: functional
[42] = test system: Escherichia coli; test: Antibacterial activity against Escherichia coli clinical isolate ECJH11 assessed as diameter of zone of inhibition by disk diffusion assay; format: functional
[43] = test system: Escherichia coli; test: Antibacterial activity against Escherichia coli clinical isolate ECJH10 assessed as diameter of zone of inhibition by disk diffusion assay; format: functional
[44] = test system: Staphylococcus aureus; test: Antibacterial activity against Staphylococcus aureus assessed as inhibition of bacterial growth; format: functional

| Compound | MBC [1] | Ratio [2] | zone of inhibition at 500 µg/mL [4] | Ratio [5] | MIC [6] | MBC [7] | MIC [8] | MBC [10] | MBC [11] | MIC [12] | MIC [13] | MIC [14] | MIC [15] | zone of inhibition at 500 µg/mL [16] | zone of inhibition at 500 µg/mL [17] | zone of inhibition at 500 µg/mL [18] | zone of inhibition at 500 µg/mL [19] | zone of inhibition at 500 µg/mL [20] | MBC [21] | Ratio [22] | other results |
| --- | --- | --- | --- | --- | --- | --- | --- | --- | --- | --- | --- | --- | --- | --- | --- | --- | --- | --- | --- | --- | --- |
| O=[N+]([O-])c1ccc(/C=N/CCNc2ccnc3cc(Cl)ccc23)cc1 | 512 µg/mL (≈ 1440 µM) | 1 | 9 mm | 1 | 256 µg/mL (≈ 722 µM) | > 512 µg/mL | 256 µg/mL (≈ 722 µM) | 256 µg/mL (≈ 722 µM) | > 512 µg/mL | 256 µg/mL (≈ 722 µM) | 512 µg/mL (≈ 1440 µM) | 256 µg/mL (≈ 722 µM) | 512 µg/mL (≈ 1440 µM) | 8 mm | 10 mm | 10 mm | 12 mm | 8 mm | 256 µg/mL (≈ 722 µM) | 1 | MBC [3]: 256 µg/mL (≈ 722 µM); Ratio [9]: 1 |
| Cc1ccc(N/N=C/c2ccc(CN3CCN(c4ccnc5cc(Cl)ccc45)CC3)cc2)cc1 | – | – | – | – | – | – | – | – | – | – | – | – | – | – | – | – | – | – | – | – | MIC [23]: 2 µg/mL (≈ 4.26 µM) |
| Clc1ccc2c(NCC/N=C/c3ccco3)ccnc2c1 | 256 µg/mL (≈ 854 µM) | 1 | 9 mm | 1 | 256 µg/mL (≈ 854 µM) | 256 µg/mL (≈ 854 µM) | 512 µg/mL (≈ 1710 µM) | 512 µg/mL (≈ 1710 µM) | > 512 µg/mL | 512 µg/mL (≈ 1710 µM) | 512 µg/mL (≈ 1710 µM) | 512 µg/mL (≈ 1710 µM) | 256 µg/mL (≈ 854 µM) | 10 mm | 9 mm | 10 mm | 9 mm | 9 mm | > 512 µg/mL | – | MBC [3]: > 512 µg/mL; Ratio [24]: 1 |
| Clc1ccc2c(NCC/N=C/c3ccccn3)ccnc2c1 | > 512 µg/mL | 2 | 8 mm | – | 512 µg/mL (≈ 1650 µM) | > 512 µg/mL | > 512 µg/mL | 512 µg/mL (≈ 1650 µM) | 512 µg/mL (≈ 1650 µM) | 256 µg/mL (≈ 824 µM) | 512 µg/mL (≈ 1650 µM) | 512 µg/mL (≈ 1650 µM) | 512 µg/mL (≈ 1650 µM) | 9 mm | 7 mm | 8 mm | 11 mm | 9 mm | 512 µg/mL (≈ 1650 µM) | 1 | Ratio [25]: 1 |
| CC1(C)S[C@@H]2[C@H](NC(=O)[C@H](N)c3ccccc3)C(=O)N2[C@H]1C(=O)O [AMPICILLIN] | – | – | – | – | – | – | – | – | – | – | – | – | – | – | – | – | – | – | – | – | diameter of the inhibition zone (DIZ) [26]: 21 mm; diameter of the inhibition zone (DIZ) [27]: 14 mm; diameter of the inhibition zone (DIZ) [28]: 17 mm; diameter of the inhibition zone (DIZ) [29]: 16 mm; diameter of the inhibition zone (DIZ) [30]: 19 mm; diameter of the inhibition zone (DIZ) [31]: 20 mm; diameter of the inhibition zone (DIZ) [32]: 17 mm; diameter of the inhibition zone (DIZ) [33]: 22 mm; diameter of the inhibition zone (DIZ) [34]: 22 mm; diameter of the inhibition zone (DIZ) [35]: 18 mm; diameter of the inhibition zone (DIZ) [36]: 22 mm; diameter of the inhibition zone (DIZ) [37]: 16 mm; diameter of the inhibition zone (DIZ) [38]: 18 mm; diameter of the inhibition zone (DIZ) [39]: 17 mm; diameter of the inhibition zone (DIZ) [40]: 24 mm; diameter of the inhibition zone (DIZ) [41]: 20 mm; diameter of the inhibition zone (DIZ) [42]: 21 mm; diameter of the inhibition zone (DIZ) [43]: 18 mm |
| Clc1ccc2c(NCC/N=C/c3ccc[nH]3)ccnc2c1 | 512 µg/mL (≈ 1710 µM) | 2 | 8 mm | 1 | 512 µg/mL (≈ 1710 µM) | > 512 µg/mL | > 512 µg/mL | 512 µg/mL (≈ 1710 µM) | – | 256 µg/mL (≈ 857 µM) | > 512 µg/mL | 512 µg/mL (≈ 1710 µM) | 512 µg/mL (≈ 1710 µM) | 9 mm | 9 mm | 10 mm | 9 mm | 7 mm | 512 µg/mL (≈ 1710 µM) | 1 | – |
| CCCCCCCCCCCCOC(=O)c1cc(OCCCCCCCCCCCC)nc2ccccc12 | – | – | – | – | – | – | – | – | – | – | – | – | – | – | – | – | – | – | – | – | MIC [44]: 6.25 µg/mL (≈ 11.9 µM) |
